Experimental data published in EP1557429A1, “Site-directed coupling of proteins” (Vectron Therapeutics AG, priority 2004, dated 2005).

Tested on: A431 cells
Assay: Binding of FITC-labeled EGFm1 to A431 cells, flow cytometry
Assay type: cell-based
Procedure: • Fig. 1: Schematic representation of the strategy to isolate side-chain deaminated ligands (A) or side-chain decarboxylated ligands (B). Randomization in approach A is performed by using sets of amino acids (X) devoid of lysines or lysines and arginines. Randomization in approach B is performed by using sets of amino acids (X) devoid of aspartic acids (Asp) and glutamic acids (Glu). • Fig. 2: Schematic representation of the strategy of side-chain elimination/addition (A) or side-chain group reduction (B), both examplified for elimination or reduction of cysteine residues. In these examples randomization is performed by using sets of amino acids (X) devoid of cysteines (Cys). Both approaches can be applied equally for any other amino acid residues. • Fig. 3: Amino acid sequences of EGF of various species. The positions of lysine and arginine residues is highlighted by grey boxes. • Fig. 4: (A) IMAC purification of recombinant HisEGFm1 from bacterial periplasm. Eluted fractions were analyzed on a 20% SDS-Tricine gel (HisEGFm1 is indicated by an arrowhead). Recombinant human EGF was included as control. (B) Size exclusion chromatography of purified EGFwt and HisEGFm1 on a superose 12 column. The positions of BSA (67 kDa), Ovalbumin (43 kDa) and Myoglobin (17 kDa) are indicated by arrows. (C) Competition of binding of fdEGF to A431 by EGFwt or HisEGFm1. • Fig. 5: Binding of FITC-labeled EGFm1 to A431. A) FITC-labeled HisEGFm1 was incubated with A431 at varying concentrations and binding was analyzed by flow cytometry (0, cells without EGFm1; 1, 17 ng/ml; 2 50 ng/ml; 3, 170 ng/ml). B) Competition of FITC-labeled EGFm1 at 170 ng/ml without (1) or with (2) excess amounts of unlabelled EGFwt. C) Control experiments with BSA. • Fig. 6: (A) Binding of EGFm1 liposomes to A431 cells.
EGFwt or EGFm1 (50 µg) were diluted to a conc. of 500 µg/ml and the pH was adjusted to 9.0 with carbonate buffer pH 9.5. FITC was added at a 10-fold molar excess and incubated overnight at 4°C. […] Fluorescence intensity was determined using a fluorescence spectrophotometer (Victor^2; Wallac, Freiburg, Germany). […]

Substance: Fluorescein-labeled EGFm1: EGFm1 labeled with fluorescein-isothiocyanate at the N-terminal amino group (NSDSECPLSHDGYCLHDGVCMYIEALDQYACNCVVGYIGERCQYSDLSWWELS; not fully specified; left off: small tags and cut ends)
- competition of binding to A431 (excess amounts of unlabeled EGFwt, BSA as control): could be competed with excess amounts of unlabeled EGFwt but not with BSA
- binding to A431 reached saturation at (fluorescein-labeled protein, flow cytometry): approximately 50 ng/ml
- binding to A431 cells (fluorescein-labeled protein, varying concentrations): strong and concentration-dependent binding
